Article PMC6765698 (CPT: Pharmacometrics & Systems Pharmacology, 2019)
Values after ≈ are worked out from the molar mass of the structure shown. Where two headings read alike, the source gives them in different places.

Columns and labels:
[1] = Octanol-water partition coefficient logP / logD; assay type: physicochemical
[2] = Acid dissociation constant pKa; assay type: physicochemical; settings: mean measured, WG, monoprotic base
[3] = Equilibrium solubility in aqueous and bio-relevant media; assay type: physicochemical; settings: fed state simulated intestinal fluid, pH 5.0
WG PBPK model = assay: WG PBPK model; parameters: species or system human
[4] = pH 1.1; ADAM model input; ref Taupitz 2013 42; cited from earlier work
[5] = 100 mg i.v. dose; cited from earlier work
CYP3A4 [6] = molecular target: T1, CYP3A4 (Homo sapiens, UniProt P08684); assay: Enzyme kinetics; settings: human liver microsomes
[7] = Fraction unbound in human liver microsomes; assay type: in vitro ADME; settings: equilibrium dialysis at 0.05-[…], calculated at […], WG
CYP3A4 [8] = molecular target: T1, CYP3A4; assay type: biochemical
[9] = tube adsorption method; ref Isoherranen 2004 (34); cited from earlier work
[10] = Blood/plasma partition ratio; assay type: in vitro ADME; settings: WG
[11] = first-order absorption model, capsule fasted, adjusted to fit observed data

T1 sequence (P08684 whole entry): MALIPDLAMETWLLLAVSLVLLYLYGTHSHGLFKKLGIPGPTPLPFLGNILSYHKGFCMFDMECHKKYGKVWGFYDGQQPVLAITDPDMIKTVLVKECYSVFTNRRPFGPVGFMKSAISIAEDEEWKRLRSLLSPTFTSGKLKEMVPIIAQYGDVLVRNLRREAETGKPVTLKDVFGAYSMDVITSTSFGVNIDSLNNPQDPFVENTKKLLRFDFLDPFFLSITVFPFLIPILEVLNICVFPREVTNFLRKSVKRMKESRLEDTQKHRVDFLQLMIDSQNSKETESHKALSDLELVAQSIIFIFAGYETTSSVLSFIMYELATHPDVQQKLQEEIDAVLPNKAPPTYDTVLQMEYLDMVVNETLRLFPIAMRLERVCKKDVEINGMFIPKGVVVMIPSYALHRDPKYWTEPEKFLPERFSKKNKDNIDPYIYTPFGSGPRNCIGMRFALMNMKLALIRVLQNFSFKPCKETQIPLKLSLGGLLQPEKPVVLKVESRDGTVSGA

| pKa [2] | Solubility in FeSSIF [3] [µg/mL] | Active uptake into hepatocyte (scaling factor) (WG PBPK model; estimated to best describe ITZ IV CL) | Fa (WG PBPK model; [11]) | ka (WG PBPK model; [11]) [h⁻¹] | Km (CYP3A4 [6]) [µM] | Structure (SMILES) | logP [1] | Intrinsic solubility [4] [µg/mL] | CL observed in vivo [5] | fu,mic ([…] HLM) [7] | Fold less potent than previously reported (CYP3A4 inhibition) (CYP3A4 [8]; apparent Ki in microsomes with WG fu,mic vs literature) | fu,mic ([…] HLM) [9] | pKa ([2]; pKa) | B/P [10] | Ki (CYP3A4 [8]) [nM] |
| --- | --- | --- | --- | --- | --- | --- | --- | --- | --- | --- | --- | --- | --- | --- | --- |
| 3.64 | 5 (≈ 7.09 µM) | 3.5 | 0.5 | 0.2 | 0.0233 | CCC(C)n1ncn(-c2ccc(N3CCN(c4ccc(OCC5COC(Cn6cncn6)(c6ccc(Cl)cc6Cl)O5)cc4)CC3)cc2)c1=O (stereo not shown) [ITZ, itraconazole] | 4.9 | 150 | ~ 21 L/hour | – | – | – | – | – | – |
| – | – | – | – | – | – | O=c1[nH]ncn1-c1ccc(N2CCN(c3ccc(OCC4COC(Cn5cncn5)(c5ccc(Cl)cc5Cl)O4)cc3)CC2)cc1 (stereo not shown) [ND-ITZ] | – | – | – | 0.70 | approximately 40 fold | 0.026 | – | – | – |
| – | – | – | – | – | – | CC(O)C(C)n1ncn(-c2ccc(N3CCN(c4ccc(OCC5COC(Cn6cncn6)(c6ccc(Cl)cc6Cl)O5)cc4)CC3)cc2)c1=O (stereo not shown) [OH-ITZ, hydroxyitraconazole] | 4.1 | – | – | – | – | – | 4 | 0.55 | 8.2 |
